Laboratory results taken from publication PMC7217877, “N-AS-triggered SPMs are direct regulators of microglia in a model of Alzheimer’s disease” (Nature Communications, 2020).
Where “and” joins values, the source holds several entries; their conditions need not be identical. Identical values can stand only once.

Tests used:
microglia [1] = assay: western blotting for ac-S565 and total COX2 in primary cells; type: cell-based, C57BL/6 mice; design: ac-S565, western blotting (Fig 3h): scale not given here; conditions: replicates
Protocol: To confirm the generation and roles of N-AS in neurons, cells from E18 C57BL/6 mice were prepared as previously described. Cortices were dissected and then dissociated followed by incubation in papain (Worthington) at 37 °C for 15 min. Neurons were plated on poly-L-lysine-coated coverslips with neuronal culture medium, serum-free Neurobasal medium (Gibco) containing 2% B27 supplements (Gibco), 1 mM Glutamax supplement (Gibco), and 100 U ml^−1 streptomycin/ 100 U ml^−1 penicillin (Gibco) at 37 °C in a humidified atmosphere of 5% CO2. Aβ 1–42 (10 μM, 24 h, Invitrogen, 03112) was exposed to neurons and the cells were analyzed for the generation and roles of N-AS. Primary astrocyte cultures were prepared from C57BL/6 mice as described previously. In brief, after removal of the meninges, postnatal day 7 (P7) mouse brain tissues were minced and incubated in a rocking water bath at 37 °C for 30 min in the presence of 0.25% trypsin-EDTA (Sigma-Aldrich). Enzyme-digested dissociated cells were triturated with astrocyte-specific medium (DMEM/F12 containing 10% FBS and 1% penicillin-streptomycin) and centrifuged at 155×g for 8 min. The pellet was resuspended in astrocyte-specific medium and passed through a 40-μm cell strainer. The filtrate was allowed pre-adherence for 30 min to remove any contamination from fibroblasts before being seeded in dishes and the addition of astrocyte-specific medium. To split the cells, Ara-C was added to the dishes and they were then placed in a heated shaker for 6–7 h. The medium was removed from the dishes, and trypsin-EDTA was added to the dish and incubated at 37 °C for 5–10 min. After centrifugation at 155×g for 8 min, the supernatant was removed, and the astrocytes were maintained in culture by feeding […] with astrocyte-specific medium. Primary microglia cultures were prepared from C57BL/6 mice as described previously. In brief, the cortices of 2-months-old mice were minced in Hibernate A (Gibco)/B27 supplements (Gibco) medium and dissociated using papain (Worthington) solution. After tissue trituration, cells were separated by Optiprep (Sigma-Aldrich) density gradient centrifugation. Microglia were plated with microglia-specific medium (DMEM/F12 containing 10% FBS and 1% penicillin-streptomycin). The immortalized human microglia (Applied Biologics Materials, T0251) were cultured in PriGrow III (Applied Biologics Materials, TM003) (supplemented with 10% FBS and 1% penicillin-streptomycin) at 37 °C in a humidified atmosphere of 5% CO2. In order to assess the clinical importance of N-AS in AD microglia, Aβ 1–42 (50 μM, 24 h, Invitrogen, 03112) was exposed to human microglia before treated with zileuton (50 μM, 24 h, Sigma-Aldrich, Z4277). The human microglia treated with Aβ 1–42 and/or zileuton was incubated with N-AS (2.5 μM, 2 h, Sigma-Aldrich, 01912), and were analyzed for the generation and roles of N-AS.
Samples were lysed in RIPA buffer (Cell signaling Technologies), then subjected to SDS-PAGE and transferred to a nitrocellulose membrane. Membranes were blocked with 5% milk, incubated with primary antibody and then incubated with the appropriate horseradish peroxidase-conjugated secondary antibody. […] We performed densitometric quantification using the ImageJ software (National Institutes of Health). Images have been cropped for presentation.

microglia [2] = assay: quantification of 15R-LXA4, RvE1, RvD1 in primary cells (LC-MS/MS); type: cell-based, C57BL/6 mice; design: unit not given here; conditions: replicates
Protocol: Lipid mediators metabololipidomics were performed according to previously described procedures with minor modifications[4],[30]. To confirm the biosynthesis of lipid mediators by recombinant COX2 treated with N-AS or aspirin, 10 U of human recombinant COX2 (Cayman, 60122) was incubated in the presence of 500 μM aspirin (Sigma-Aldrich, A5376) or N-AS (Sigma-Aldrich, 01912) at 37 °C for 30 min. The enzyme was filtered with a Microcon column (Millipore) to remove unreacted aspirin or N-AS and was then resuspended in 0.1 M Tris-HCl (pH 8.0). Next, 500 μM phenol (Sigma-Aldrich) and 1 μM hematin-porcine (Sigma-Aldrich) were added immediately before incubation with 100 μM AA, EPA or DHA (Cayman) at 37 °C for 2 h, respectively. The mixtures were incubated with 30 U of human 5-LOX (Cayman, 60402) containing 2 mM CaCl2 (Sigma-Aldrich), 1 mM ATP (Amresco) and 5 μM 13-HpODE (Cayman) as activators. Also, to validate the importance of residue S565 for N-AS-acetylation of COX2 and production of SPMs, 10 U of the COX2 S565A mutant was used in the above-described method. In addition, to confirm SPM generation in neurons and microglia, these cells were treated with Aβ and sonicated in neuronal and glial culture medium. […] To evaluate the relationship of N-AS and SPM production in microglia, microglia were isolated from WT, APP/PS1, and APP/PS1 treated with N-AS mice at 9 months of age. The microglia were sonicated and resuspended in microglial culture medium. The supernatants were incubated with 100 μM AA, EPA, and DHA (Cayman) at 37 °C for 2 h. A 50 μl aliquot of the mixture from each cell lysate was added to a 250 μl aliquot of 1 ng ml^−1 of 15S-LXA4-d5 (internal standard, Cayman) methanol solution. After vortexing for 10 min and centrifuging at 15,974×g for 5 min, the supernatant was subjected to the analysis of the lipid mediators using an Agilent 6470 Triple Quad LC-MS/MS system (Agilent) coupled to an Agilent 1290 HPLC system. Chromatographic separation was achieved using a Synergi Polar RP (4 μm, 2.0 mm i.d. × 150 mm, Phenomenex). Analytes were eluted with a mobile phase consisting of water: formic acid (100:0.1 v/v) (phase A) and methanol: formic acid (100:0.1 v/v) (phase B) in gradient elution mode for 23 min a flow rate of 0.2 ml min^−1. The elution gradient was as follows: from 0 to 0.1 min the content of phase A was 37% and the content of phase A was decreased to 10% and maintained for 5.5 min. The content of phase A was increased back to 37% at 6.0 min and maintained for 23 min. Quantification was carried out using MRM in negative ionization mode and collision energy of 10–15 eV. The mass transition from Q1 to Q3 is shown in Supplementary Table 2. In this study, the peak areas for all components were automatically integrated using MassHunter B 06.00. […]

[3] = test system: immortalized human microglia; assay: LM-SPM profile of human microglia (LC-MS/MS, Supplementary Table 3, Fig 6d); type: cell-based; conditions: Aβ 50 µM alone; mean±s.e.m.

## CCCCCCCCCCCCC/C=C/[C@@H](O)[C@@H](N)CO [Sph, sphingosine]
Microglia [1]; Ab 10mM + supplement
  ac-S565, western blotting (Fig 3h): 0.2446 and 0.241 and 0.1599 and 0.2328
Microglia [2]; Ab + supplement
  15R-LxA4 (Fig 3i): 0.0305 and 0.03209 and 0.03444 and 0.02809 and 0.03291 and 0.03127
  RvD1 (Fig 3i): 0.01033
  RvE1 (Fig 3i): 0.01434 and 0.01128 and 0.01433 and 0.01281 (2×) and 0.01357

## Ab: Aβ 1–42 (Invitrogen, 03112) used to induce an AD environment in cells
Microglia [1]; Ab 10mM, no supplement
  ac-S565, western blotting (Fig 3h): 0.2316 and 0.2169 and 0.2234 and 0.1511
Microglia [1]; Ab 10mM
  ac-S565 / total COX2, western blotting (Fig 3b): 0.3907 and 0.4255 and 0.3575 and 0.3077 and 0.4081 and 0.3915
[3]
  11-HEPE in human microglia: 490.2±2.4 ng/ml*106cell
  11-HETE in human microglia: 174.9±2.0 ng/ml*106cell
  13-HDHA in human microglia: 128.2±1.8 ng/ml*106cell
  15-HEPE in human microglia: 272.1±7.3 ng/ml*106cell
  15-HETE in human microglia: 564.3±4.4 ng/ml*106cell
  15R-LXA4 in human microglia: 0.03±0.0 ng/ml*106cell
  17-HDHA in human microglia: 561.8±2.7 ng/ml*106cell
  18-HEPE in human microglia: 1515.3±10.4 ng/ml*106cell
  PGE3/PGD3 in human microglia: 163.9±2.5 ng/ml*106cell
  PGH2/PGE2 in human microglia: 78.7±0.8 ng/ml*106cell
  RvD1 in human microglia: 0.01±0.0 ng/ml*106cell
  RvE1 in human microglia: 0.01±0.0 ng/ml*106cell
Microglia [2]; Ab, no supplement
  15R-LxA4 (Fig 3i): 0.02349 and 0.02377 and 0.02373 and 0.02259 and 0.02438 and 0.02316
  RvD1 (Fig 3i): 0.01012
  RvE1 (Fig 3i): 0.01237 and 0.02326 and 0.01244 and 0.01782 and 0.01785 and 0.01513

B1: Sphk1: purified sphingosine kinase1 enzyme (Cayman, 10348) supplemented to cell lysates (protein, UniProt Q9NYA1 1-384, looked up)
Sphingosine kinase 1: MDPAGGPRGVLPRPCRVLVLLNPRGGKGKALQLFRSHVQPLLAEAEISFTLMLTERRNHARELVRSEELGRWDALVVMSGDGLMHEVVNGLMERPDWETAIQKPLCSLPAGSGNALAASLNHYAGYEQVTNEDLLTNCTLLLCRRLLSPMNLLSLHTASGLRLFSVLSLAWGFIADVDLESEKYRRLGEMRFTLGTFLRLAALRTYRGRLAYLPVGRVGSKTPASPVVVQQGPVDAHLVPLEEPVPSHWTVVPDEDFVLVLALLHSHLGSEMFAAPMGRCAAGVMHLFYVRAGVSRAMLLRLFLAMEKGRHMEYECPYLVYVPVVAFRLEPKDGKGVFAVDGELMVSEAVQGQVHPNYFWMVSGCVEPPPSWKPQQMPPPEEPL
Microglia [1]; Ab 10mM + supplement
  ac-S565, western blotting (Fig 3h): 0.2731 and 0.2264 and 0.2811 and 0.241
Microglia [2]; Ab + supplement
  15R-LxA4 (Fig 3i): 0.02407 and 0.02353 and 0.02184 and 0.02402 and 0.02413 and 0.02293
  RvD1 (Fig 3i): 0.01112
  RvE1 (Fig 3i): 0.01218 and 0.0124 and 0.01241 (2×) and 0.01229 and 0.01235
